Results taken from patent publication EP0068680A1, “Antibiotics” (BEECHAM GROUP PLC, priority 1981, dated 1983).
Values after ≈ are worked out from the molar mass of the structure shown. Read-outs that look alike come from different tables or passages of the source.

Assays:
M. suipneumoniae NB12 = assay: MIC against Mycoplasma in vitro (agar); format: cell-based; conditions: Friis broth solidified with 0.9% agarose, 6 days at 37°C
M. suipneumoniae JF 435 = assay: MIC against Mycoplasma in vitro (agar); format: cell-based; conditions: Friis broth solidified with 0.9% agarose, 6 days at 37°C
M. suipneumoniae HK(2) = assay: MIC against Mycoplasma in vitro (agar); format: cell-based; conditions: Friis broth solidified with 0.9% agarose, 6 days at 37°C
M. suipneumoniae Str. 11 = assay: MIC against Mycoplasma in vitro (agar); format: cell-based; conditions: Friis broth solidified with 0.9% agarose, 6 days at 37°C
[1] = system: M. suipneumoniae J2206/183^b; assay: MIC against Mycoplasma in vitro (agar); format: cell-based; conditions: Friis broth solidified with 0.9% agarose, 6 days at 37°C
M. suipneumoniae MS 16 = assay: MIC against Mycoplasma in vitro (agar); format: cell-based; conditions: Friis broth solidified with 0.9% agarose, 6 days at 37°C
[2] = system: M. suipneumoniae PW/C/210; assay: MIC against Mycoplasma in vitro (agar); format: cell-based; conditions: Friis broth solidified with 0.9% agarose, 6 days at 37°C
M. suipneumoniae LABER = assay: MIC against Mycoplasma in vitro (agar); format: cell-based; conditions: Friis broth solidified with 0.9% agarose, 6 days at 37°C
M. suipneumoniae UCD 1 = assay: MIC against Mycoplasma in vitro (agar); format: cell-based; conditions: Friis broth solidified with 0.9% agarose, 6 days at 37°C
M. suipneumoniae TAM 6N = assay: MIC against Mycoplasma in vitro (agar); format: cell-based; conditions: Friis broth solidified with 0.9% agarose, 6 days at 37°C
[3] = system: M. suipneumoniae ATCC 25095; assay: MIC against Mycoplasma in vitro (agar); format: cell-based; conditions: Friis broth solidified with 0.9% agarose, 6 days at 37°C
[4] = system: M. suipneumoniae NCTC 10110; assay: MIC against Mycoplasma in vitro (agar); format: cell-based; conditions: Friis broth solidified with 0.9% agarose, 6 days at 37°C
[5] = system: M. hyosynoviae ATCC 25591; assay: MIC against Mycoplasma in vitro (agar); format: cell-based; conditions: Friis broth solidified with 0.9% agarose, 6 days at 37°C
M. bovis NCTC 10131 = assay: microbe, parasite or virus in culture; format: cell-based
[6] = system: M. bovigenitalium ATCC 14173; assay: MIC against Mycoplasma in vitro (agar); format: cell-based; conditions: Friis broth solidified with 0.9% agarose, 6 days at 37°C
M. gallisepticum S6 = assay: MIC against Mycoplasma in vitro (agar); format: cell-based; conditions: Friis broth solidified with 0.9% agarose, 6 days at 37°C
E. coli NCTC 10418 [7] = assay: MIC against Human Bacteria in vitro (agar dilution); format: cell-based; conditions: 18 hours at 37°C
E. coli ESS = assay: as above; format: cell-based; conditions: agar with 5% chocolated horse blood, 18 hours at 37°C
[8] = system: Ps. aeruginosa NCTC 10662; assay: as above; format: cell-based; conditions: 18 hours at 37°C
[9] = system: Pasteurella multocida 1633; assay: as above; format: cell-based; conditions: agar with 5% chocolated horse blood, 18 hours at 37°C
[10] = system: Neisseria catarrhalis 1502; assay: as above; format: cell-based; conditions: agar with 5% chocolated horse blood, 18 hours at 37°C
Bacillus subtilis 6633 = assay: as above; format: cell-based; conditions: agar with 5% chocolated horse blood, 18 hours at 37°C
[11] = system: Corynebacterium xerosis 9755; assay: as above; format: cell-based; conditions: agar with 5% chocolated horse blood, 18 hours at 37°C
Sarcina lutea 8340 = assay: as above; format: cell-based; conditions: agar with 5% chocolated horse blood, 18 hours at 37°C
Staph. aureus Russell = assay: as above; format: cell-based; conditions: agar with 5% chocolated horse blood, 18 hours at 37°C
Strep. faecalis I = assay: as above; format: cell-based; conditions: agar with 5% chocolated horse blood, 18 hours at 37°C
Strep. pyogenes B2788 = assay: as above; format: cell-based; conditions: agar with 5% chocolated horse blood, 18 hours at 37°C
Strep. pneumoniae CN33 = assay: as above; format: cell-based; conditions: agar with 5% chocolated horse blood, 18 hours at 37°C
E. coli NCTC 10418 [12] = assay: MIC against Veterinary Bacteria in vitro (agar dilution)
Procedure: (§1) The activity of the compounds of the Examples against various veterinarily important bacteria, was assayed in vitro using two-fold serial dilutions in Diagnostic Sensitivity Test Agar inoculated with 10^4 organisms.

E. coli E1 = assay: as above
Procedure: as §1

S. typhimurium S18 = assay: as above
Procedure: as §1

Bord. bronchiseptica B08 = assay: as above
Procedure: as §1

Bord. bronchiseptica B09 = assay: as above
Procedure: as §1

Past. multocida PA1 = assay: as above
Procedure: as §1

Past. multocida PA2 = assay: as above
Procedure: as §1

Past. haemolytica PA5 = assay: as above
Procedure: as §1

[13] = system: Erysipelothrix rhusiopathiae NCTC 8163; assay: as above
Procedure: as §1

[14] = system: Staph. aureus B4 (pen. resistant); assay: as above
Procedure: as §1

[15] = system: Staph. aureus 152 (pen. sens); assay: as above
Procedure: as §1

Staph. aureus Oxford = assay: as above
Procedure: as §1

Strep. uberis SPU1 = assay: as above
Procedure: as §1

[16] = Mesomycoplasma hyopneumoniae, 144 h, read-out: MIC
[17] = agar with 5% chocolated horse blood

CC(=CC(=O)OCCCCC=CCCC(=O)O)CC1OCC(CC2OC2C(C)C(C)O)C(O)C1O (stereo not shown) [Example 1, pseudomonic acid D]
MIC (M. suipneumoniae NB12; [16]): 1 µg/mL (≈ 2.01 µM) | MIC (M. suipneumoniae JF 435; Mesomycoplasma hyopneumoniae, JF435, 144 h, read-out: MIC): 5 µg/mL (≈ 10 µM) | MIC (M. suipneumoniae HK(2); [16]): 5 µg/mL (≈ 10 µM) | MIC (M. suipneumoniae Str. 11; [16]): 1 µg/mL (≈ 2.01 µM) | MIC [1, 16]: 2.5 µg/mL (≈ 5.01 µM) | MIC (M. suipneumoniae MS 16; Mesomycoplasma hyopneumoniae, MS16, 144 h, read-out: MIC): 2.5 µg/mL (≈ 5.01 µM) | MIC [2, 16]: 1 µg/mL (≈ 2.01 µM) | MIC (M. suipneumoniae LABER; [16]): 2.5 µg/mL (≈ 5.01 µM) | MIC (M. suipneumoniae UCD 1; Mesomycoplasma hyopneumoniae, UCD1, 144 h, read-out: MIC): 5 µg/mL (≈ 10 µM) | MIC (M. suipneumoniae TAM 6N; Mesomycoplasma hyopneumoniae, TAM6N, 144 h, read-out: MIC): 5 µg/mL (≈ 10 µM) | MIC ([3]; Mesomycoplasma hyopneumoniae, ATCC25095, 144 h, read-out: MIC): 1 µg/mL (≈ 2.01 µM) | MIC ([4]; Mesomycoplasma hyopneumoniae, NCTC10110, 144 h, read-out: MIC): 5 µg/mL (≈ 10 µM) | MIC ([5]; 144 h, read-out: MIC): 0.5 µg/mL (≈ 1 µM) | MIC (M. bovis NCTC 10131; NCTC10131, 144 h): 0.05 µg/mL (≈ 0.1 µM) | MIC ([6]; 144 h, read-out: MIC): 0.1 µg/mL (≈ 0.201 µM) | MIC (M. gallisepticum S6; Mycoplasmoides gallisepticum, 144 h, read-out: MIC): > 10 µg/mL | MIC (E. coli NCTC 10418 [7]; Escherichia coli, NCTC10418, agar with 5% chocolated horse blood, read-out: MIC): > 25 µg/mL | MIC (E. coli ESS; Escherichia coli, read-out: MIC): 1 µg/mL (≈ 2.01 µM) | MIC ([8]; Pseudomonas aeruginosa, NCTC10662, agar with 5% chocolated horse blood, read-out: MIC): > 25 µg/mL | MIC ([9]; read-out: MIC): 0.25 µg/mL (≈ 0.501 µM) | MIC ([10]; read-out: MIC): 0.5 µg/mL (≈ 1 µM) | MIC (Bacillus subtilis 6633; read-out: MIC): 1 µg/mL (≈ 2.01 µM) | MIC ([11]; read-out: MIC): > 25 µg/mL | MIC (Sarcina lutea 8340; Micrococcus luteus, read-out: MIC): > 25 µg/mL | MIC (Staph. aureus Russell; Staphylococcus aureus, read-out: MIC): 1 µg/mL (≈ 2.01 µM) | MIC (Strep. faecalis I; Enterococcus faecalis, read-out: MIC): > 25 µg/mL | MIC (Strep. pyogenes B2788; Streptococcus pyogenes, read-out: MIC): 0.5 µg/mL (≈ 1 µM) | MIC (Strep. pneumoniae CN33; Streptococcus pneumoniae, read-out: MIC): 0.25 µg/mL (≈ 0.501 µM) | MIC (E. coli NCTC 10418 [12]; Escherichia coli, NCTC10418, 18 h): > 20 µg/mL | MIC (E. coli E1; Escherichia coli, E1, 18 h): > 20 µg/mL | MIC (S. typhimurium S18; Salmonella enterica, TYPHIMURIUM, 18 h): > 20 µg/mL | MIC (Bord. bronchiseptica B08; Bordetella bronchiseptica, B08, 18 h): 10 µg/mL (≈ 20.1 µM) | MIC (Bord. bronchiseptica B09; Bordetella bronchiseptica, B09, 18 h): 5 µg/mL (≈ 10 µM) | MIC (Past. multocida PA1; Pasteurella multocida, PA1, 18 h): 0.156 µg/mL (≈ 0.313 µM) | MIC (Past. multocida PA2; Pasteurella multocida, PA2, 18 h): < 0.019 µg/mL | MIC (Past. haemolytica PA5; Mannheimia haemolytica, PA5, 18 h): 2.5 µg/mL (≈ 5.01 µM) | MIC ([13]; Erysipelothrix rhusiopathiae, NCTC8163, 18 h): 10 µg/mL (≈ 20.1 µM) | MIC ([14]; Staphylococcus aureus, 18 h): 0.312 µg/mL (≈ 0.626 µM) | MIC ([15]; Staphylococcus aureus, 18 h): 0.312 µg/mL (≈ 0.626 µM) | MIC (Staph. aureus Oxford; Staphylococcus aureus, 18 h): 0.312 µg/mL (≈ 0.626 µM) | MIC (Strep. uberis SPU1; Streptococcus uberis, SPU1, 18 h): 0.039 µg/mL (≈ 0.0782 µM)

Methyl pseudomonate D [Example 2]
MIC (M. suipneumoniae NB12): 5.0 µg/mL | MIC (M. suipneumoniae JF 435): 5.0 µg/mL | MIC (M. suipneumoniae HK(2)): 5.0 µg/mL | MIC (M. suipneumoniae Str. 11): 2.5 µg/mL | MIC [1]: 5.0 µg/mL | MIC (M. suipneumoniae MS 16): 2.5 µg/mL | MIC [2]: 2.5 µg/mL | MIC (M. suipneumoniae LABER): 2.5 µg/mL | MIC (M. suipneumoniae UCD 1): 5.0 µg/mL | MIC (M. suipneumoniae TAM 6N): 10 µg/mL | MIC [3]: 2.5 µg/mL | MIC [4]: 5.0 µg/mL | MIC [5]: 0.5 µg/mL | MIC (M. bovis NCTC 10131; M. bovis NCTC 10131, Friis broth solidified with 0.9% agarose, 6 days at 37°C): 0.05 µg/mL | MIC [6]: 0.1 µg/mL | MIC (M. gallisepticum S6): >10 µg/mL | MIC (E. coli NCTC 10418 [7]; [17]): >100 µg/mL | MIC (E. coli ESS): 1.0 µg/mL | MIC [8, 17]: >100 µg/mL | MIC [9]: 0.5 µg/mL | MIC [10]: 0.5 µg/mL | MIC (Bacillus subtilis 6633): 0.5 µg/mL | MIC [11]: >100 µg/mL | MIC (Sarcina lutea 8340): >100 µg/mL | MIC (Staph. aureus Russell): 2.5 µg/mL | MIC (Strep. faecalis I): >100 µg/mL | MIC (Strep. pyogenes B2788): 2.5 µg/mL | MIC (Strep. pneumoniae CN33): 2.5 µg/mL | MIC (E. coli NCTC 10418 [12]; E. coli NCTC 10418, Diagnostic Sensitivity Test Agar, 18 hours at 37°C): 40 µg/mL | MIC (E. coli E1; E. coli E1, Diagnostic Sensitivity Test Agar, 18 hours at 37°C): 40 µg/mL | MIC (S. typhimurium S18; S. typhimurium S18, Diagnostic Sensitivity Test Agar, 18 hours at 37°C): 80 µg/mL | MIC (Bord. bronchiseptica B08; Bord. bronchiseptica B08, Diagnostic Sensitivity Test Agar, 18 hours at 37°C): 40 µg/mL | MIC (Bord. bronchiseptica B09; Bord. bronchiseptica B09, Diagnostic Sensitivity Test Agar, 18 hours at 37°C): 10 µg/mL | MIC (Past. multocida PA1; Past. multocida PA1, Diagnostic Sensitivity Test Agar, 18 hours at 37°C): 10 µg/mL | MIC (Past. multocida PA2; Past. multocida PA2, Diagnostic Sensitivity Test Agar, 18 hours at 37°C): 2.5 µg/mL | MIC (Past. haemolytica PA5; Past. haemolytica PA5, Diagnostic Sensitivity Test Agar, 18 hours at 37°C): 1.25 µg/mL | MIC ([13]; Erysipelothrix rhusiopathiae NCTC 8163, Diagnostic Sensitivity Test Agar, 18 hours at 37°C): 20 µg/mL | MIC ([14]; Staph. aureus B4 (pen. resistant), Diagnostic Sensitivity Test Agar, 18 hours at 37°C): 80 µg/mL | MIC ([15]; Staph. aureus 152 (pen. sens), Diagnostic Sensitivity Test Agar, 18 hours at 37°C): 0.625 µg/mL | MIC (Staph. aureus Oxford; Staph. aureus Oxford, Diagnostic Sensitivity Test Agar, 18 hours at 37°C): 0.625 µg/mL | MIC (Strep. uberis SPU1; Strep. uberis SPU1, Diagnostic Sensitivity Test Agar, 18 hours at 37°C): 5.0 µg/mL
